This is an account of results in patent publication US5187277A, “DL-3-[4-[4-(2-pyridyl)-1-piperazinyl]-butyl]-1,8,8-trimethyl-3-az abicyclo[(3]octane-2,4-dione having psychotropic and antiemetic effect” (priority 1990, dated 1993).

What is called ED50 is the dose at which the effect has come halfway, by size or by number of responders. As usually defined, the LD50 is the dose at which mortality reaches 50%.

In one data set the test system is mice. In words: antiapomorphine activity in "climbing" test of mice. The conditions noted are these: for ED50: Mus musculus, ip, read-out: Antiapomorphine activity in "climbing" test ED50. In kind it is in vivo. As for the experimental part:
(§1) The compounds were introduced intraperitoneally and orally 20-60 minutes before the beginning of the test. The minimum effective doses (MED) increasing the number of water takings and increasing the period of staying in an illuminated area by at least 50%, were determined. The neuroleptic activity was detected and measured using the "rat fight" method and the "climbing" test of mice (P. Protais et al. Psychopharmacology, 50, p. 1, 1976). […] The antiemetic effect on vomiting caused by apomorphine or cisplatin was studied in pigeons (P. Presiosi et al., Arch. Int. Pharmacodyn., 298, p. 301, 1989) and mongrel dogs having a weight of 6-8 kg.

Another data set relates to rat. In words: antiaggressive activity ("rat fight" method). In kind it is in vivo. The note with it: for ED50: Rattus norvegicus, read-out: Antiaggressive activity ED50. As for the experimental part:
as §1

The test system of data set [1] is rats (avoiding illuminated area tests). In words: anxiolytic activity by the method of avoiding illuminated areas. The note with it: for minimal effective dose: Rattus norvegicus, read-out: Anxiolytic activity MED in "avoiding illuminated area" tests. In kind it is in vivo. As for the experimental part:
as §1

Data set [2] deals with pigeons. Briefly: antiemetic activity, vomiting caused by apomorphine in pigeons. It is filed as in vivo. The note with it: for ED50: Columbidae, ip, read-out: Antiemetic activity, ED50. As for the experimental part: as §1
The test system of the next data set is rats (conflict tests). In words: anxiolytic activity in conflict situation model. In kind it is in vivo. The note with it: for minimal effective dose: Rattus norvegicus, read-out: Anxiolytic activity MED in conflict tests. As for the experimental part:
as §1

A short description of data set [3]: hexobarbital-potentiation effect (narcosepotentiation, nonnarcotic dose of hexobarbital). The conditions noted are these: for ED50: read-out: Hexobarbital-potentiation effect ED50. In kind it is in vivo.
Another data set is described as follows: in vivo. The note with it: ip.
A short description of data set [4]: sedative activity, suppression of motor activity (spontaneous locomotion). The conditions noted are these: for ED50: ip, read-out: Sedative activity ED50, suppression of motor activity. In kind it is in vivo.
For data set [5], the system named is pigeons. In words: antiemetic activity, vomiting caused by cisplatin in pigeons. In kind it is in vivo. The conditions noted are these: Columbidae, ip, read-out: Antiemetic activity, ED50. As for the experimental part:
as §1

Data set [6] is described as follows: myorelaxation activity, rotating rod test. It is filed as in vivo. The conditions noted are these: for ED50: ip, read-out: Myorelaxation activity ED50.
Data set [7] is described as follows: sedative activity, suppression of orientation behaviour. In kind it is in vivo. The conditions noted are these: ip, read-out: Sedative activity ED50, suppression of orientation behaviour.
For data set [8] the following is noted: from Table 2.
A short description of data set [9]: cataleptogenic (extrapyramidic) activity. The conditions noted are these: in vivo.
Data set [10] relates to mongrel dogs. In words: antiemetic activity, vomiting caused by cisplatin in dogs. In kind it is in vivo. The conditions noted are these: Canis lupus familiaris; dog tests. As for the experimental part: as §1
Data set [11] has as its system mongrel dogs. Briefly: antiemetic activity, vomiting caused by apomorphine in dogs. The note with it: Canis lupus familiaris; dog tests. In kind it is in vivo. As for the experimental part:
as §1

Data set [12] is described as follows: effect characteristic of tranquilizers and neuroleptics (anxiolytic, antiaggressive, antiapomorphine and hexobarbital-potentiation effects). It is filed as in vivo. The note with it: systematic application of dihydrochloride. As for the experimental part: as §1
Setting [13] is: ip, rats, i/p, minimum effective dose increasing period of staying in illuminated area by at least 50%.
[14] abbreviates: po, rats, orally, minimum effective dose increasing period of staying in illuminated area by at least 50%.
The mark [15] stands for this setting: pigeons, vomiting caused by apomorphine, i/p.
The mark [16] stands for this setting: ip, rats, i/p, minimum effective dose increasing number of water takings by at least 50%, dihydrochlorides of I, VI, VII.
[17] abbreviates: po, rats, orally, minimum effective dose increasing number of water takings by at least 50%, dihydrochlorides of I, VI, VII.
Setting [18] is: pigeons, vomiting caused by cisplatin, i/p.

Molecules are shown by their SMILES. Where a name gives a salt, the structure may show the parent alone. Read-outs that look alike come from different tables or passages of the source. A value given as a limit tells only on which side of the number the result lay.

Consider `CCN1CCCC1CNC(=O)c1cc(S(N)(=O)=O)ccc1OC` (centres unmarked) [Sulpyride], for which the ED50 in the data set on mice (mice, i/p) is 8.4 ± 1.3 mg/kg; with rat (ip, i/p), 60.6 ± 16.6 mg/kg.

`CC12CCC(C(=O)N(CCCCN3CCN(c4ncccn4)CC3)C1=O)C2(C)C` (racemic) [VII, DL-3-[4-(2-pyrimidinyl)-1-piperazinyl]-butyl]-1,8,8-trimethyl-3azabic yclo[3,2,1]octane-2,4-dione]: the minimal effective dose in data set [1] (setting [13]) is 3 mg/kg; in data set [1] (setting [14]), 10 mg/kg; in the data set on rats (conflict tests) (setting [16]), 3 mg/kg; in the data set with rats (conflict tests) (setting [17]) it was 3 mg/kg. Moreover, the ED50 with pigeons [2] (setting [15]) amounted to 1.8 ± 0.4 mg/kg; in the data set with mice (mice, i/p), 1.31 ± 0.15 mg/kg; in the data set on rat (ip, i/p) it was 28.5 ± 4.2 mg/kg; in the data set on rat (po, orally), 81.5 ± 8.3 mg/kg; in [3] (ip, i/p), 11.9 ± 2.2 mg/kg; in data set [3] (po, orally), 36.5 ± 8.11 mg/kg. Besides, the 50% effective dose (ED50) in [4] (i/p) came to 5.4 ± 2.3 mg/kg; with pigeons [5] (setting [18]), 4.6 ± 0.8 mg/kg; in data set [6] (i/p), 52.5 ± 12 mg/kg; in [7] (i/p), 7.7 ± 1.6 mg/kg. In “in vivo”, this compound gave a median lethal dose (LD50) of 211 ± 31 mg/kg.

As to `O=C(CCCN1CCC(O)(c2ccc(Cl)cc2)CC1)c1ccc(F)cc1` [Haloperidol], the results for the ED50 in the data set on pigeons [2], in the data set with mice and in the data set on pigeons [5] were 3.4 ± 0.5 mg/kg, 0.67 ± 0.06 mg/kg and 4.4 ± 0.9 mg/kg, respectively. The minimal effective dose in the data set on rats (conflict tests) (ip) is over 3 mg/kg.

In the case of `O=C1CC2(CCCC2)CC(=O)N1CCCCN1CCN(c2ncccn2)CC1` [VI, 8-[4-[4-(2-pyrimidinyl)-1-piperazinyl]butyl]-8-azaspiro[4,5]decane-7 ,9-dione], the minimal effective dose (in [1] (setting [13]); in the data set on rats (conflict tests) (setting [16])) was 3 mg/kg throughout. Besides, the ED50 with mice (mice, i/p) was determined as 2.6 ± 0.46 mg/kg; in data set [3] (ip, i/p), 8.2 ± 2.4 mg/kg; in [4] (i/p), 8.7 ± 1.8 mg/kg; in [6] (i/p), 54.2 ± 8.1 mg/kg; in data set [7] (i/p), 7.6 ± 1.9 mg/kg. This compound returned an LD50 in “in vivo” of 140 ± 20 mg/kg.

With `CCN(CC)CCNC(=O)c1cc(Cl)c(N)cc1OC` [Metoclopramide], the values for the ED50 in the data set on pigeons [2] (setting [15]) and with pigeons [5] (setting [18]) were 12 ± 1.7 mg/kg and 9.7 ± 1.1 mg/kg, respectively.

Regarding `CN1CCN(CCCN2c3ccccc3Sc3ccc(C(F)(F)F)cc32)CC1` [Trifluoperazine], the ED50 in the data set on pigeons [2] (setting [15]) was determined as 4.6 ± 0.8 mg/kg; in the data set on pigeons [5] (setting [18]), 5.5 ± 0.9 mg/kg.

On to `CN1C(=O)CN=C(c2ccccc2)c2cc(Cl)ccc21` [Diazepame], for which the minimal effective dose (in data set [1] (ip); in [1] (po); with rats (conflict tests) (ip)) was 1 mg/kg each time. Moreover, the median effective dose (ED50) in the data set on rat (po) amounted to 5.9 ± 1.28 mg/kg; in [3] (ip), 0.3 ± 0.1 mg/kg; in data set [3] (po), 0.48 ± 0.12 mg/kg; in [4], 0.6 ± 0.2 mg/kg; in data set [6], 2.4 ± 0.2 mg/kg; in [7], 0.6 ± 0.2 mg/kg.

Regarding `CC12CCC(C(=O)N(CCCCN3CCN(c4ccccn4)CC3)C1=O)C2(C)C` (racemic) [Compound I, DL-3-[4-[4-(2-pyridyl)-1-piperazinyl]-butyl]-1,8,8-trimethyl-3-azabicyclo[3,2,1]octane-2,4-dione dihydrochloride], the “toxicity compared with diazepame” value in [8] was “much lower than the activity and toxicity of diazepame”. Further, the minimal effective dose was determined as 1 mg/kg in data set [1] (setting [13]), 10 mg/kg in data set [1] (setting [14]), 1 mg/kg in the data set on rats (conflict tests) (setting [16]) and 3 mg/kg in the data set on rats (conflict tests) (setting [17]). In addition, the “anxiolytic activity relative to compounds VI, VII” value is given as “three times as large” in [1] (two anxiety models, intraperitoneally, avoiding illuminated area) and “three times as large” in the data set with rats (conflict tests) (two anxiety models, intraperitoneally, conflict test). Also, in [9], the “cataleptogenic (extrapyramidic) activity” value was “free of cataleptogenic (extrapyramidic) activity”. In addition, the ED50 with pigeons [2] (setting [15]) turned out to be 0.11 ± 0.02 mg/kg; in the data set on mice (mice, i/p) it was 0.7 ± 0.13 mg/kg; in the data set with mongrel dogs [10], 0.013 ± 0.005 mg/kg; in the data set with mongrel dogs [11], 0.02 ± 0.006 mg/kg; in the data set with rat (ip, i/p), 7.45 ± 1.6 mg/kg; in the data set with rat (po, orally), 30.8 ± 4.14 mg/kg. The ED50 in data set [3] (ip, i/p) came to 17.6 ± 2.9 mg/kg; in [3] (po, orally), 12.5 ± 3.14 mg/kg; in data set [4] (i/p) it was 2.8 ± 0.7 mg/kg; in the data set with pigeons [5] (setting [18]), 0.4 ± 0.07 mg/kg; in data set [6] (i/p) it was 44.5 ± 10 mg/kg; in [7] (i/p), 3.9 ± 0.9 mg/kg. The “antiemetic effect relative to all comparable compounds (haloperidol, triphthazine, metoclopramide)” value in the data set on pigeons [2] (fold, versus haloperidol, triphthazine, metoclopramide, emetogen not specified (apomorphine or cisplatin)) is on record as 10-100 times. In addition, the “antiemetic and antiapomorphine activities compared with other compounds” value in the data set with pigeons [2] (pigeons, from Table 3) is reported as “substantially higher than those of other compounds”. In the data set on mice (climbing test), the “climbing test activity relative to buspirone and bicyclic imides” value was “two to four times as large”. Moreover, the “apomorphine antagonism in "climbing" test compared with haloperidol” value in the data set with mice (mouse, in vivo) is “comparable to haloperidol”. The “antianxiety activity relative to buspirone and said bicyclic imides” value in the data set on rats (conflict tests) (conflict situation model) is given as “three times as large”. For the same compound, the “anxiolytic doses compared with diazepame” value in the data set on rats (conflict tests) (intraperitoneally) is on record as “coincide with the similar doses of diazepame”. For the same compound, the “antiaggressive activity relative to buspirone and bicyclic imides” value in the data set on rat (antiaggressive test) is “two to four times as large”. Further, the “hexobarbital-potentiating activity compared with diazepame” value in [3] (in vivo) was “essentially lower than the activity of diazepame”. Besides, in the data set “in vivo”, the LD50 amounted to 208 ± 20 mg/kg. Also, the “sedative activity compared with diazepame” value in data set [4] (from Table 2) was “much lower than the activity and toxicity of diazepame”. The “dose range producing anxiolytic, antiaggressive, antiapomorphine and hexobarbital-potentiation effects” value in [12] is reported as 0.1-50 mg/kg of a body weight. Also, in [6] (from Table 2), the “myorelaxation activity compared with diazepame” value is “much lower than the activity and toxicity of diazepame”.
